Experimental data reported in the NIST ThermoML archive (doi:10.1016/j.jct.2015.05.011).
± gives the expanded uncertainty stated by the source.

Experiments:
[1] = refractive index (Na D-line) (dimensionless); xn = mol fraction of the nth substance listed; conditions: 298.15 K, 100 kPa, Liquid, Standard Abbe refractometry
[2] = excess molar enthalpy (molar enthalpy of mixing); xn = mol fraction of the nth substance listed; conditions: 100 kPa, Liquid, Flow calorimetry
[3] = xn = mol fraction of the nth substance listed; conditions: 100 kPa, Liquid; for mass density: Vibrating tube method; for viscosity: Falling or rolling sphere viscometry

CCn1cc[n+](C)c1.N#C[C-](C#N)C#N [1-ethyl-3-methyl-1H-imidazolium tricyanomethanide] + O
[1]
Conditions | refractive index
x2 = 0 | 1.51227 ± 0.00036
x2 = 0.1084 | 1.50965 ± 0.00036
x2 = 0.2059 | 1.50681 ± 0.00036
x2 = 0.3058 | 1.50438 ± 0.00036
x2 = 0.4145 | 1.49961 ± 0.00035
x2 = 0.5128 | 1.49477 ± 0.00035
x2 = 0.6095 | 1.487 ± 0.00035
x2 = 0.7065 | 1.4765 ± 0.00035
x2 = 0.789 | 1.46324 ± 0.00035
x2 = 0.9015 | 1.42697 ± 0.00035
x2 = 0.9513 | 1.39433 ± 0.00036
x2 = 0.9869 | 1.35455 ± 0.00037

Conditions | excess molar enthalpy, [2] [kcal/mol] | mass density, [3] [kg/m3] | viscosity, [3] [mPa·s]
288.15 K, x1 = 0.000486 | 0.00123 ± 0.000196 | 999.748 ± 0.11 | –
288.15 K, x1 = 0.000971 | 0.00258 ± 0.000215 | 1000.38 ± 0.11 | –
288.15 K, x1 = 0.001456 | 0.00395 ± 0.000263 | 1000.99 ± 0.11 | –
288.15 K, x1 = 0.001941 | 0.0053 ± 0.000311 | 1001.57 ± 0.11 | –
288.15 K, x1 = 0.002425 | 0.00668 ± 0.000359 | 1002.13 ± 0.11 | –
288.15 K, x1 = 0.002908 | 0.00806 ± 0.000406 | 1002.68 ± 0.11 | –
298.15 K, x1 = 0.000486 | 0.00143 ± 0.000196 | 997.586 ± 0.11 | –
298.15 K, x1 = 0.000971 | 0.00297 ± 0.000227 | 998.133 ± 0.11 | –
298.15 K, x1 = 0.001455 | 0.0045 ± 0.000263 | 998.652 ± 0.11 | –
298.15 K, x1 = 0.00194 | 0.00603 ± 0.000335 | 999.158 ± 0.11 | –
298.15 K, x1 = 0.002423 | 0.00756 ± 0.000382 | 999.648 ± 0.11 | –
298.15 K, x1 = 0.002907 | 0.00907 ± 0.000454 | 1000.12 ± 0.11 | –
298.15 K, x2 = 0 | – | 1081.38 ± 0.15 | 14 ± 0.3
298.15 K, x2 = 0.1084 | – | 1079.85 ± 0.15 | 11.85 ± 0.25
298.15 K, x2 = 0.2059 | – | 1078.28 ± 0.14 | 10.11 ± 0.22
298.15 K, x2 = 0.3058 | – | 1076.34 ± 0.14 | 8.35 ± 0.18
298.15 K, x2 = 0.4145 | – | 1073.8 ± 0.13 | 7.05 ± 0.15
298.15 K, x2 = 0.5128 | – | 1070.97 ± 0.13 | 5.88 ± 0.13
298.15 K, x2 = 0.6095 | – | 1067.4 ± 0.13 | 4.89 ± 0.1
298.15 K, x2 = 0.7065 | – | 1062.54 ± 0.12 | 3.98 ± 0.08
298.15 K, x2 = 0.789 | – | 1056.44 ± 0.12 | 3.24 ± 0.07
298.15 K, x2 = 0.9015 | – | 1040.72 ± 0.12 | 2.16 ± 0.05
298.15 K, x2 = 0.9513 | – | 1026.4 ± 0.12 | 1.58 ± 0.03
298.15 K, x2 = 0.9869 | – | 1008.32 ± 0.12 | 1.07 ± 0.02
308.15 K, x1 = 0.000485 | 0.00166 ± 0.000198 | 994.509 ± 0.11 | –
308.15 K, x1 = 0.00097 | 0.00339 ± 0.000239 | 994.981 ± 0.11 | –
308.15 K, x1 = 0.001455 | 0.00511 ± 0.000287 | 995.435 ± 0.11 | –
308.15 K, x1 = 0.001939 | 0.00682 ± 0.000359 | 995.873 ± 0.11 | –
308.15 K, x1 = 0.002423 | 0.00851 ± 0.00043 | 996.296 ± 0.11 | –
308.15 K, x1 = 0.002906 | 0.0102 ± 0.000478 | 996.708 ± 0.11 | –
318.15 K, x1 = 0.000485 | 0.00184 ± 0.000201 | 990.626 ± 0.11 | –
318.15 K, x1 = 0.00097 | 0.00377 ± 0.000239 | 991.036 ± 0.11 | –
318.15 K, x1 = 0.001455 | 0.00569 ± 0.000311 | 991.43 ± 0.11 | –
318.15 K, x1 = 0.001939 | 0.00759 ± 0.000382 | 991.809 ± 0.11 | –
318.15 K, x1 = 0.002422 | 0.00945 ± 0.000454 | 992.176 ± 0.11 | –
318.15 K, x1 = 0.002905 | 0.0113 ± 0.000526 | 992.534 ± 0.11 | –
